Laboratory results taken from publication PMC8480901 (PLoS ONE, 2021).
Several values for one entry are separate records, joined by “and”; a condition that tells them apart may be missing. Equal values may be shown once.

Tested on: human PBMCs
Assay: LPS-induced cytokine and chemokine levels in human PBMC supernatant (Luminex, ELISA)
Assay type: cell-based
Settings: LPS-stimulated PBMC supernatant; for CCl2, Mean / CXCL1, Mean / CXCL2, Mean / MMP9, Mean: sample size 2; for CCl2, individual value / CXCL1, individual value / CXCL2, individual value / MMP9, individual value: single replicate

C[C@@H]1C[C@H]2[C@@H]3CCC4=CC(=O)C=C[C@]4(C)[C@@]3(F)[C@@H](O)C[C@]2(C)[C@@]1(O)C(=O)CO [Dexamethasone]
CCl2, % reduction (0.0003 µM): -4.68%
CXCL1 % reduction (0.0003 µM): -4%
CXCL2 % reduction (0.0003 µM): 4%
MMP9 % reduction (0.0003 µM): 3.74%
CCl2, Mean (0.0003 µM): 1323 pg/mL
CXCL1, Mean (0.0003 µM): 6192 pg/mL
CXCL2, Mean (0.0003 µM): 4849 pg/mL
MMP9, Mean (0.0003 µM): 2934 pg/mL
CCl2, individual value (0.0003 µM): 1383 pg/mL and 1264 pg/mL
CXCL1, individual value (0.0003 µM): 6146 pg/mL and 6238 pg/mL
CXCL2, individual value (0.0003 µM): 4762 pg/mL and 4936 pg/mL
MMP9, individual value (0.0003 µM): 2852 pg/mL and 3016 pg/mL
CCl2, % reduction (0.001 µM): 0.423%
CXCL1 % reduction (0.001 µM): 1.28%
CXCL2 % reduction (0.001 µM): 3%
MMP9 % reduction (0.001 µM): 7%
CCl2, Mean (0.001 µM): 1261 pg/mL
CXCL1, Mean (0.001 µM): 5877 pg/mL
CXCL2, Mean (0.001 µM): 4905 pg/mL
MMP9, Mean (0.001 µM): 2887 pg/mL
CCl2, individual value (0.001 µM): 1275 pg/mL and 1246 pg/mL
CXCL1, individual value (0.001 µM): 5806 pg/mL and 5947 pg/mL
CXCL2, individual value (0.001 µM): 4830 pg/mL and 4980 pg/mL
MMP9, individual value (0.001 µM): 2894 pg/mL and 2879 pg/mL
CCl2, % reduction (0.003 µM): 17%
CXCL1 % reduction (0.003 µM): 6%
CXCL2 % reduction (0.003 µM): 4%
MMP9 % reduction (0.003 µM): 16%
CCl2, Mean (0.003 µM): 1056 pg/mL
CXCL1, Mean (0.003 µM): 5588 pg/mL
CXCL2, Mean (0.003 µM): 4851 pg/mL
MMP9, Mean (0.003 µM): 2739 pg/mL
CCl2, individual value (0.003 µM): 1044 pg/mL and 1067 pg/mL
CXCL1, individual value (0.003 µM): 5506 pg/mL and 5671 pg/mL
CXCL2, individual value (0.003 µM): 4888 pg/mL and 4814 pg/mL
MMP9, individual value (0.003 µM): 2727 pg/mL and 2751 pg/mL
CCl2, % reduction (0.01 µM): 33%
CXCL1 % reduction (0.01 µM): 16%
CXCL2 % reduction (0.01 µM): 17%
MMP9 % reduction (0.01 µM): 23%
CCl2, Mean (0.01 µM): 860 pg/mL
CXCL1, Mean (0.01 µM): 5032 pg/mL
CXCL2, Mean (0.01 µM): 4217 pg/mL
MMP9, Mean (0.01 µM): 2621 pg/mL
CCl2, individual value (0.01 µM): 863 pg/mL and 858 pg/mL
CXCL1, individual value (0.01 µM): 4889 pg/mL and 5174 pg/mL
CXCL2, individual value (0.01 µM): 4342 pg/mL and 4092 pg/mL
MMP9, individual value (0.01 µM): 2587 pg/mL and 2655 pg/mL
CCl2, % reduction (0.03 µM): 46%
CXCL1 % reduction (0.03 µM): 25%
CXCL2 % reduction (0.03 µM): 30%
MMP9 % reduction (0.03 µM): 24%
CCl2, Mean (0.03 µM): 701 pg/mL
CXCL1, Mean (0.03 µM): 4474 pg/mL
CXCL2, Mean (0.03 µM): 3565 pg/mL
MMP9, Mean (0.03 µM): 2601 pg/mL
CCl2, individual value (0.03 µM): 757 pg/mL and 644 pg/mL
CXCL1, individual value (0.03 µM): 4471 pg/mL and 4477 pg/mL
CXCL2, individual value (0.03 µM): 3377 pg/mL and 3753 pg/mL
MMP9, individual value (0.03 µM): 2572 pg/mL and 2630 pg/mL
CCl2, % reduction (0.1 µM): 56%
CXCL1 % reduction (0.1 µM): 35%
CXCL2 % reduction (0.1 µM): 40%
MMP9 % reduction (0.1 µM): 39%
CCl2, Mean (0.1 µM): 584 pg/mL
CXCL1, Mean (0.1 µM): 3861 pg/mL
CXCL2, Mean (0.1 µM): 3024 pg/mL
MMP9, Mean (0.1 µM): 2364 pg/mL
CCl2, individual value (0.1 µM): 488 pg/mL and 679 pg/mL
CXCL1, individual value (0.1 µM): 3279 pg/mL and 4443 pg/mL
CXCL2, individual value (0.1 µM): 2644 pg/mL and 3404 pg/mL
MMP9, individual value (0.1 µM): 2111 pg/mL and 2616 pg/mL
CCl2, % reduction (0.3 µM): 55%
CXCL1 % reduction (0.3 µM): 32%
CXCL2 % reduction (0.3 µM): 49%
MMP9 % reduction (0.3 µM): 26%
CCl2, Mean (0.3 µM): 591 pg/mL
CXCL1, Mean (0.3 µM): 4087 pg/mL
CXCL2, Mean (0.3 µM): 2585 pg/mL
MMP9, Mean (0.3 µM): 2569 pg/mL
CCl2, individual value (0.3 µM): 580 pg/mL and 603 pg/mL
CXCL1, individual value (0.3 µM): 3996 pg/mL and 4178 pg/mL
CXCL2, individual value (0.3 µM): 2570 pg/mL and 2599 pg/mL
MMP9, individual value (0.3 µM): 2679 pg/mL and 2458 pg/mL
CCl2, % reduction (1 µM): 58%
CXCL1 % reduction (1 µM): 32%
CXCL2 % reduction (1 µM): 48%
MMP9 % reduction (1 µM): 46%
CCl2, Mean (1 µM): 551 pg/mL
CXCL1, Mean (1 µM): 4042 pg/mL
CXCL2, Mean (1 µM): 2659 pg/mL
MMP9, Mean (1 µM): 2244 pg/mL
CCl2, individual value (1 µM): 591 pg/mL and 510 pg/mL
CXCL1, individual value (1 µM): 4057 pg/mL and 4026 pg/mL
CXCL2, individual value (1 µM): 2573 pg/mL and 2746 pg/mL
MMP9, individual value (1 µM): 2290 pg/mL and 2198 pg/mL
